How the values were obtained:
Format in all cases: physicochemical
[1] = Solubility of the compound of formula (I) in aqueous media (water, pH 1.2 simulated gastric fluid, FaSSIF)
Description: (§1) The compound of formula (I) belongs in the high permeability, poor solubility drug classification (BCS 2) described in the Biopharmaceutics Classification System (BCS). In the improved widely accepted Developability Classification System (DCS) discussed by Butler and Dressman, the high permeability low solubility category is further divided into two classifications. Specifically, the ratio of the dose to the solubility of the drug in FaSSIF can be used to predict the extent of human absorption. Class 2a describes compounds that have good permeability and poor solubility with a smaller dose to solubility ratio. Class 2b describes compounds that have a higher dose to solubility ratio and likely will be incompletely absorbed unless the drug is formulated in an already solubilized form, and therefore might present a major challenge to the formulator. […] That is, even for a dose of 10 mg about only 1.2% of the dose of the drug may dissolve in a glass of water or FaSSIF. For Class 2b compounds the system predicts that particle reduction should have no impact on bioavailability. Martinez and Amidon offer: “In the case of solubility-limited absorption particle size exerts minimal effect on the fraction of drug absorbed. […]

[2] = Biopharmaceutics Classification System (BCS) classification; conditions: high permeability, poor solubility
Description: as §1

[3] = Particle size distribution by laser diffraction (Malvern Mastersizer 2000); conditions: for D10 / D50 / D90: lot of micronized Form C of Compound 1 used in capsules of Table 16
Description: The particle size distribution of Compound 1 was measured using a laser diffraction method. A sample of Compound 1 was either dispersed in water or wetted and dispersed in 0.2% w/v Tween 80 in water to a final concentration spanning approximately 2.5 to 60 mg/mL. Using a Malvern Mastersizer 2000 with a Hydro 2000S sample dispersion unit the obscuration was adjusted to between 10 and 30%. The stir speed was adjusted to 2250-2500 rpm, pre-measurement delay to approximately 30 s, sample measurement time to around 10-15 s, background measurement time to around 10-15 s and the particle shape assumed to be irregular. The samples were at a concentration between 0.0032-0.0044% vol and had specific surface area between 1.65 and 2.10 m2/g, a surface weighted mean between 2.87 and 3.64 μm, and a volume weighed mean between 3.62 and 4.67 μm. The measurements were obtained using the Mie scattering model (material refractive index=1.520, dispersant refractive index=1.330, absorption=0.001 or 0.1) with normal sensitivity.
Representative particle size distribution data for lots of un-micronized and micronized Form C of Compound 1 are shown in Table 7. In addition, representative particle size distribution for micronized Form A of Compound 1 is also included in Table 7. FIG. 4A, FIG. 4B and FIG. 4C also contain particle size distribution profiles for three representative lots of micronized Form C of Compound 1. FIG. 13A and FIG. 13B contain particle size distribution profiles for micronized and un-micronized Form C of Compound 1a. FIG. 14A and FIG. 14B contain particle size distribution profiles for micronized and un-micronized Form C of Compound 1b. FIG. 15A and FIG. 15B contain particle size distribution profiles for micronized and un-micronized Form C of Compound 1c. FIG. 16A and FIG. 16B contain particle size distribution profiles for micronized and un-micronized Form C of Compound 1d.

[4] = lot used in Composition 30, 8 kg blend batch, 20 mg dose strength
[5] = lot used in Composition 30, 12 kg blend batch, 30 mg dose strength
[6] = lot used in Composition 30, 34.7 kg blend batch, 20 mg dose strength
[7] = lot used in Composition 30, 52 kg blend batch, 30 mg dose strength

For `C[C@@]1(O)CC[C@H]2[C@H](CC[C@@H]3[C@@H]2CC[C@]2(C)[C@@H](C(=O)Cn4cc(C#N)cn4)CC[C@@H]32)C1` [Compound 1, 1-(2-((3R,5R,8R,9R,10S,13S,14S,17S)-3-hydroxy-3,13-dimethylhexadecahydro-1H-cyclopenta[a]phenanthren-17-yl)-2-oxoethyl)-1H-pyrazole-4-carbonitrile], the “% of the dose that may dissolve in a glass of water or FaSSIF” value ([1]; 10 mg dose) was about 1.2%, the “solubility in aqueous media” value ([1]; water, pH 1.2 simulated gastric fluid, FaSSIF) was “practically insoluble” and the “drug classification, Biopharmaceutics Classification System (BCS)” value [2] was “BCS 2”.
Compound `C[C@@]1(O)CC[C@H]2[C@H](CC[C@@H]3[C@@H]2CC[C@]2(C)[C@@H](C(=O)Cn4cc(C#N)cn4)CC[C@@H]32)C1` [Lot A] has a D10 ([3]; listed as A) of 1.7 μm, a D50 ([3]; listed as A) of 3.3 μm and a D90 ([3]; listed as A) of 6.8 μm.
Work on `C[C@@]1(O)CC[C@H]2[C@H](CC[C@@H]3[C@@H]2CC[C@]2(C)[C@@H](C(=O)Cn4cc(C#N)cn4)CC[C@@H]32)C1` [Lot B] yielded a D10 ([3]; listed as B) of 1.9 μm, a D50 ([3]; listed as B) of 3.5 μm and a D90 ([3]; listed as B) of 6.6 μm.
`C[C@@]1(O)CC[C@H]2[C@H](CC[C@@H]3[C@@H]2CC[C@]2(C)[C@@H](C(=O)Cn4cc(C#N)cn4)CC[C@@H]32)C1` [Lot C] showed a D10 ([3]; listed as C) of 2.1 μm, a D50 ([3]; listed as C) of 4.0 μm and a D90 ([3]; listed as C) of 7.7 μm.
For `C[C@@]1(O)CC[C@H]2[C@H](CC[C@@H]3[C@@H]2CC[C@]2(C)[C@@H](C(=O)Cn4cc(C#N)cn4)CC[C@@H]32)C1` [Micronized Form C of Compound 1], the “Particle Size Distribution D10” value [3, 4] was 1.7, the “Particle Size Distribution D50” value [3, 4] was 3.2 and the “Particle Size Distribution D90” value [3, 4] was 6.1. For the same compound, the “Particle Size Distribution D10” value [3, 5] was 1.7, the “Particle Size Distribution D50” value [3, 5] was 3.2 and the “Particle Size Distribution D90” value [3, 5] was 6.1. The “Particle Size Distribution D10” value [3, 6] was 1.8, the “Particle Size Distribution D50” value [3, 6] was 3.3 and the “Particle Size Distribution D90” value [3, 6] was 6.5. For the same compound, the “Particle Size Distribution D10” value [3, 7] was 2.1, the “Particle Size Distribution D50” value [3, 7] was 4.1 and the “Particle Size Distribution D90” value [3, 7] was 8.0.
